According to patent publication US11612604B2, “Methods of treating cancer with PLK4 inhibitors” (LUDWIG INSTITUTE FOR CANCER RESEARCH LTD, priority 2017, dated 2023):

Experiments:
[1] = system: neuroblastoma cell lines (SH-SY5Y, CHP134, IMR32, CHP212, SK-N-SH, SK-N-F1); assay: Proliferation (12-day passaging) assay, neuroblastoma cell lines; format: cell-based; conditions: 150 nM centrinone, 12 days, all 6 neuroblastoma cell lines
Method: (§1) All 6 of the neuroblastoma cell lines grew robustly in the presence of DMSO in 12-day passaging assays.
(§2) Plated cell numbers were adjusted to the cell line characteristics (doubling time and cell size). At 96-hour intervals, plates were harvested, counted and re-plated at 25,000-150,000 cells/plate. Cell counting was performed using a TC20 automated cell counter (Bio-Rad).

[2] = system: control cell lines (HepG2, BT-12, BT-16, SK-ES-1, A673); assay: Proliferation (12-day passaging) assay, control cell lines; format: cell-based; conditions: 150 nM centrinone, 12 days, five control cell lines
Method: as §1, §2

[3] = system: CHP134 cells harboring the G95L mutant PLK4; assay: Proliferation (passaging) assay, CHP134 cells with G95L mutant PLK4; format: cell-based; conditions: 150 nM centrinone
Method: as §1
(§3) Cell lines: Cells were maintained in ATCC-recommended complete growth media with 100 U/mL penicillin and 100 μg/mL streptomycin at 37° C. and 5% CO2. The RPE-1 TRIM37Δ knockout cell line was previously described (Meitinger et al., 2016). The CHP134 and HCT116 TRIM37Δ knockout cell lines were generated by transfection and nucleofection, respectively, of preassembled RNPs using a TRIM37 specific gRNA ([…]). The CHP134 G95L cell line was generated as previously described (Wong et al., 2015). For generation of H2B-mRFP expressing cell lines, cells were infected with a H2B-mRFP expressing lentiviral construct (Meitinger et al., 2016). Populations of each cell line expressing H2B-mRFP were enriched by FACS. To knock down TP53 (p53), cells were infected with a lentivirus containing sh-p53 made using the plasmid shp53 pLKO.1 puro (Godar et al., Cell. 134:62-73 (2008)). Positive selection of sh-p53 expressing cells was performed 2 days after infection with 10 μg/ml puromycin.
as §2

[4] = system: breast cancer cell lines (BT474, MCF7, MDA-MB-231); assay: Proliferation (passaging) assay, breast cancer cell lines; format: cell-based; conditions: 150 nM centrinone, BT474 and MCF7 (TRIM37 locus amplified)
Method: Sensitivity to centrosome removal correlated with TRIM37 copy number in breast cancer as well. FIG. 3A is a graph plotting TRIM37 copy number versus expression level for breast cancer cell lines (data from the CCLE database; (Barretina et al., 2012)).
as §2

[5] = system: caspase-3/7 activity in 'Sensitive' neuroblastoma and 'Not Sensitive' (RPE1, BT-12, BT-16) cell lines; assay: Caspase activation assay; format: cell-based; conditions: 150 nM centrinone, four cell cycle durations
[6] = system: RPE1, BT-12, BT-16, CHP212, CHP134 and SK-N-F1 cells; assay: Assessing mitotic phenotypes and mitotic duration by live cell imaging; format: cell-based; conditions: for rates of anaphase failure and/or cell death during mitosis: three cell cycles in 150 nM centrinone
Method: To examine the effects of centrosome removal, progression through mitosis after centrosome depletion was analyzed in three control cell lines with low TRIM37 levels (RPE1, BT-12 and BT-16), and in the three cell lines with the highest TRIM37 levels (CHP212, CHP134 and SK-N-F1). All of the tested cell lines, with the exception of SK-N-F1, were p53+.
For cells that completed mitosis, the inventors measured mitotic duration to determine if they would be likely to die due to tripping the mitotic duration sensor. […] The mean duration of mitosis in control SK-N-F1 cells, a p53− neuroblastoma cell line, was longer (104.7 minutes).
Assessing mitotic phenotypes: First, the cell cycle duration of the indicated cell lines was determined for each cell line by imaging cells expressing H2B-mRFP for 48-72 hours. The mean time from the beginning the first mitosis (nuclear envelope breakdown) until the beginning of the second mitosis in each daughter cell was the cell line specific cell cycle duration. […] Cells were seeded into 96-well polystyrene plates at 10,000 cells/well, 14-16 hours before imaging. Images were acquired on a CQ1 spinning disk confocal systems (Yokogawa Electric Corporation) with an Olympus UPLSAPO40 X 40×0.95 objective and 2560×2160 sCMOS camera (Andor) at 37° C. and 5% CO2 at 2×2 binning. Image acquisition and data analysis were performed using CellVoyager software and ImageJ, respectively. 12-24 fields/well were imaged. 5×2 μm z-sections in RFP (25% power, 150 ms) channels were captured in each field at 4-minute intervals for 24 hours. Mitotic duration was measured as the interval between nuclear envelope breakdown and chromosome decondensation. Mitotic phenotypes were categorized into ‘bipolar’, ‘multipolar’, ‘cell death during mitosis’ and ‘anaphase failure’.

[7] = system: CHP134 cells and CHP134 clones with varying TRIM37 levels; assay: ATPlite cellular proliferation assay in CHP134 clones; format: cell-based; conditions: 5 days in 125 nM centrinone, WT CHP134 cells
Method: After CRISPR targeting, CHP134 clones with varying TRIM37 copy numbers were isolated and the levels of TRIM37 protein were measured by quantitative western blotting. Alpha-tubulin was used as a blotting control. Clones with TRIM37 levels between 12 and 64% of the levels in the WT cell line were isolated. […] Results are expressed as the percent of the value for the equivalent DMSO-treated control and are plotted versus measured TRIM37 protein level. […] Thus, for centrinone-treated CHP134 cells, mitotic success and cell viability both decreased as TRIM37 levels increased.

[8] = system: CHP134 cells in which TRIM37 was deleted, p53 was knocked down, or both; assay: Proliferation (12-day passaging) assay, CHP134 TRIM37 deletion / p53 knockdown cells; format: cell-based
Method: as §3, §2

[9] = system: RPE1 cells and primary cell cultures; conditions: cited from earlier work

COc1c(Nc2cc(C)[nH]n2)nc(Sc2ccc(S(=O)(=O)Cc3cccc([N+](=O)[O-])c3F)cc2F)nc1N1CCOCC1 [centrinone]
cell number in passaging assay [1]: cell number rapidly declined to zero | proliferation in passaging assay [2]: continued to proliferate | proliferation in passaging assay [3]: proliferated in centrinone at a rate comparable to non-mutant cells in DMSO | sensitivity to centrosome removal in passaging assay [4]: highly sensitive | caspase activity ([5]; 'Not Sensitive' cell lines (RPE1, BT-12, BT-16)): relatively low levels | caspase activity ([5]; three 'Sensitive' neuroblastoma cell lines): high levels of caspase activity | mean duration of mitosis after centrosome removal ([6]; CHP134): 257 min | cells that fail to segregate their chromosomes ([6]; CHP134, absence of centrioles (FIG. 5A)): about 36% | mean duration of mitosis after centrosome removal ([6]; CHP212): 221 min | mitotic duration ([6]; control RPE1 cells and RPE1 TRIM37Δ reconstituted with wild-type TRIM37, after centrinone): substantial increase in mitotic duration | rates of anaphase failure and/or cell death during mitosis ([6]; cell lines with high TRIM37 levels (CHP212, CHP134, SK-N-F1)): 31-74% | rates of anaphase failure and/or cell death during mitosis ([6]; three cell lines with low TRIM37 levels (RPE1, BT-12, BT-16)): 3-14% | cellular proliferation (ATPlite), percent of DMSO-treated control [7]: loss in proliferation comparable to that of the two highest mutant clones | proliferation in passaging assay ([8]; centrinone, CHP134 with TRIM37 deleted and p53 knocked down): robust proliferation in centrinone | proliferation in 12-day passaging assay ([8]; centrinone, CHP134 with shRNA-mediated knockdown of p53): allowed CHP134 cells to proliferate | proliferation in 12-day passaging assay ([8]; centrinone-treated CHP134, TRIM37 deletion): enabled their proliferation | response to centrinone-induced centrosome loss ([9]; RPE1 cells and 3 primary cell cultures with intact p53 pathway (Wong et al.)): stabilize p53 and arrest in G1 | effect on centriole duplication ([9]; centrinone treatment (Wong et al.)): blocks centriole duplication
